This is an account of results in ChEMBL document CHEMBL1129952, “Structure-based design of substituted diphenyl sulfones and sulfoxides as lipophilic inhibitors of thymidylate synthase” (J Med Chem, 1997).

The test system of one assay is GC3/MTK-. The assay can be described thus: Inhibitory activity against GC3/M TK- human adreno carcinoma cell lines.
A further assay concerns L1210. The assay can be described thus: Inhibitory activity against murine L1210 leukemic cell lines. Particulars: Mus musculus.
The next assay concerns CCRF-CEM. The assay can be described thus: Inhibitory activity against human CCRF-CEM leukemic cell lines.
Assay [1] concerns the target T1, Thymidylate synthase (Homo sapiens, UniProt P04818).
Description: Binding affinity against recombinant human thymidylate synthase
The target in assay [2] is T1, Thymidylate synthase. The source holds these as a separate data set.
Description: Binding affinity against recombinant thymidylate synthase in Escherichia coli

The structures appear in SMILES notation. Where “and” joins values, the source holds several entries; their conditions need not be identical. Equal entries are not always repeated. Where only a bound is given, the exact number is not on record here.

Usually IC50 stands for the concentration needed to halve the response being measured. A word on the Ki: it is the dissociation constant of the complex between target and ligand, obtained from inhibition or displacement.

T1 sequence (P04818 whole entry): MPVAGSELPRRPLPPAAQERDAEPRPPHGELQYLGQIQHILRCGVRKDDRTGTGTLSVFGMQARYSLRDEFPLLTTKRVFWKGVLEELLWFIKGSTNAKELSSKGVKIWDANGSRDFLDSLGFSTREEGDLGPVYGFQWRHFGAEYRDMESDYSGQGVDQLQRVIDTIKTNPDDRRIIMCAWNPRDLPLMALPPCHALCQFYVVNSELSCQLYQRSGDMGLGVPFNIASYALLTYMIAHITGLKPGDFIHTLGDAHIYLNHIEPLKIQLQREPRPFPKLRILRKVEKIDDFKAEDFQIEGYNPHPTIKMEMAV

Turning to `C#CCN(Cc1ccc2nc(C)nc(O)c2c1)c1ccc([S+]([O-])c2ccccc2C)c(C(F)(F)F)c1` (stereo not drawn), the figures for the IC50 with GC3/MTK-, in the assay with L1210 and with CCRF-CEM were 9100 nM, 1000 nM and 3000 nM, respectively. Further, the Ki was 260 nM and 390 nM on Thymidylate synthase [1]; 290 nM and 920 nM at Thymidylate synthase [2].
In the case of `C#CCN(Cc1ccc2nc(C)nc(O)c2c1)c1ccc(S(=O)(=O)c2ccccc2)c(F)c1`, the figures for the IC50 with GC3/MTK-, in the assay on L1210 and in the assay on CCRF-CEM were 2800 nM, 1200 nM and 2000 nM, respectively. In addition, the Ki at Thymidylate synthase [1] is 20 nM and 46 nM; on Thymidylate synthase [2], 43 nM and 74 nM.
As for `C#CCN(Cc1ccc2nc(C)nc(O)c2c1)c1ccc(S(=O)(=O)c2ccccc2C)c(C(F)(F)F)c1`, the figures for the IC50 in the assay with GC3/MTK-, in the assay on L1210 and in the assay with CCRF-CEM were above 5000 nM, 1000 nM and 2000 nM, respectively. In addition, the Ki is 150 nM and 380 nM at Thymidylate synthase [1]; 160 nM and 390 nM on Thymidylate synthase [2].
On to `C#CCN(Cc1ccc2nc(C)nc(O)c2c1)c1ccc([S+]([O-])c2ccccc2C)cc1` (stereo not drawn), for which the figures for the IC50 in the assay on GC3/MTK-, in the assay with L1210 and in the assay on CCRF-CEM were 4000 nM, 1700 nM and 3500 nM, respectively. Also, the Ki was 45 nM and 77 nM on Thymidylate synthase [1]; 250 nM and 780 nM at Thymidylate synthase [2].
On to `C#CCN(Cc1ccc2nc(C)nc(O)c2c1)c1ccc(S(=O)(=O)c2ccccc2Cl)cc1`, for which the results for the IC50 in the assay with GC3/MTK-, in the assay with L1210 and in the assay on CCRF-CEM were 1200 nM, 300 nM and 600 nM, respectively. Also, the Ki on Thymidylate synthase [1] was 21 nM and 25 nM; at Thymidylate synthase [2] it was 33 nM and 69 nM.
Turning to `C#CCN(Cc1ccc2nc(C)nc(O)c2c1)c1ccc(S(=O)(=O)c2ccccc2C)cc1`, the IC50 with GC3/MTK- was found to be 3400 nM; in the assay on L1210, 600 nM; in the assay with CCRF-CEM, 2700 nM. The Ki was 26 nM and 58 nM at Thymidylate synthase [1]; 56 nM and 160 nM on Thymidylate synthase [2].
Regarding `C#CCN(Cc1ccc2nc(C)nc(O)c2c1)c1ccc([S+]([O-])c2ccccc2)c(Cl)c1` (stereo not drawn), the IC50 in the assay on GC3/MTK- came to 3800 nM; in the assay with L1210, 1000 nM; in the assay on CCRF-CEM, 2300 nM. Also, the Ki was 27 nM and 37 nM at Thymidylate synthase [1]; 54 nM and 130 nM at Thymidylate synthase [2].
Regarding `C#CCN(Cc1ccc2nc(C)nc(O)c2c1)c1ccc([S+]([O-])c2ccccc2)c(F)c1` (stereo not drawn), the IC50 in the assay with GC3/MTK- came to 4200 nM; in the assay on L1210, 2100 nM; in the assay with CCRF-CEM, 1400 nM. The Ki at Thymidylate synthase [1] is 50 nM and 120 nM; at Thymidylate synthase [2], 88 nM and 290 nM.
Turning to `C#CCN(Cc1ccc2nc(C)nc(O)c2c1)c1ccc([S+]([O-])c2ccccc2)c(C(F)(F)F)c1` (stereo not drawn), the IC50 in the assay with GC3/MTK- stood at 3300 nM; in the assay with L1210 it was 1100 nM; in the assay on CCRF-CEM it was 3000 nM. Further, the Ki at Thymidylate synthase [1] was 70 nM and 150 nM; at Thymidylate synthase [2] it was 110 nM and 160 nM.
As to `C#CCN(Cc1ccc2nc(C)nc(O)c2c1)c1ccc([S+]([O-])c2ccccc2Cl)cc1` (stereo not drawn), the 50% inhibitory concentration (IC50) in the assay with GC3/MTK- worked out at 4300 nM; with L1210 it was 2100 nM; in the assay with CCRF-CEM, 5800 nM. Moreover, the Ki on Thymidylate synthase [1] was 46 nM and 73 nM; at Thymidylate synthase [2] it was 190 nM and 760 nM.
For the molecule `C#CCN(Cc1ccc2nc(C)nc(O)c2c1)c1ccc(S(=O)(=O)c2ccccc2)c(Cl)c1`, the figures for the IC50 with GC3/MTK-, with L1210 and in the assay with CCRF-CEM were 3000 nM, 1600 nM and 1500 nM, respectively. Also, the Ki at Thymidylate synthase [1] was 24 nM and 55 nM; on Thymidylate synthase [2], 33 nM and 43 nM.
As to `C#CCN(Cc1ccc2nc(C)[nH]c(=O)c2c1)c1ccc([S+]([O-])c2ccccc2)cc1` (stereo not drawn), the Ki on Thymidylate synthase [1] is 61 nM and 110 nM; on Thymidylate synthase [2], 160 nM and 550 nM.
In turn, `C#CCN(Cc1ccc2nc(C)nc(O)c2c1)c1ccc(S(=O)(=O)c2ccccc2)cc1` yielded an IC50 in the assay on GC3/MTK- of 1030 nM.
